Results taken from article PMC12473028, “Isolation and Biological Evaluation of Human Tyrosinase Inhibitors from the Fruit of Xanthium strumarium L” (Molecules, 2025).
Where two headings read alike, the source gives them in different places. Blank lines part the entries; values can stand above or below the compound they belong to.

How the values were obtained:
Test in all cases: L-DOPA oxidation assay in MM418C1 cell lysate, single dose […] ([…] activity remaining)
Details in all cases: read-out: % activity remaining at 1 mg/mL
human tyrosinase (hsTYR) [1] = molecular target: T1, human tyrosinase (hsTYR) (Homo sapiens, UniProt P14679); assay type: cell-free (cell lysate)
T1 construct: gene TYR
T1 sequence (P14679 19-529): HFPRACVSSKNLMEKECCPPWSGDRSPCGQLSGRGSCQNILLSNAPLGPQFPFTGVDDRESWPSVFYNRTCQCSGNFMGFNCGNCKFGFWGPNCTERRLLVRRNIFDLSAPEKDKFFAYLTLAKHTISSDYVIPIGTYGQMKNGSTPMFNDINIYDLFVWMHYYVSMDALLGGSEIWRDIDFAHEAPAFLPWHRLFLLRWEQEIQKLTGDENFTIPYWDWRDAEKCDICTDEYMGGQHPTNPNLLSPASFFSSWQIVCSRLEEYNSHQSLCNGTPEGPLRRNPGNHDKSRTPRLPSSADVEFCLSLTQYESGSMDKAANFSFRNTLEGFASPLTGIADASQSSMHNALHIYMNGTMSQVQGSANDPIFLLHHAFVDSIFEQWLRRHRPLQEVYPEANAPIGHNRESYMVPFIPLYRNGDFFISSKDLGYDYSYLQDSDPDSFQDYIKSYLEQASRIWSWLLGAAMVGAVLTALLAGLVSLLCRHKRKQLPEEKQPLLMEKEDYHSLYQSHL

human tyrosinase (hsTYR) [2] = molecular target: T1, human tyrosinase (hsTYR); assay type: cell-free
human tyrosinase (hsTYR) [3] = molecular target: T1, human tyrosinase (hsTYR); assay type: biochemical

remaining activity at 1000 µg/mL (human tyrosinase (hsTYR) [1]): 68.1%
Compound: O=C(/C=C/c1ccc(O)c(O)c1)O[C@@H]1C[C@](O)(C(=O)O)C[C@@H](O)[C@H]1O [compound 7, 5-caffeoylquinic acid]

remaining activity at 1000 µg/mL (human tyrosinase (hsTYR) [2]): 76.9%
Compound: CC1(C)C(CO[C@@H]2O[C@H](CO)[C@@H](O)[C@H](O)[C@H]2O)=CC(=O)C2=C1SCC(=O)N2 [compound 9, xanthiside]

remaining activity at 1000 µg/mL (human tyrosinase (hsTYR) [3]): 78.1%
Compound: O=C(/C=C/c1ccc(O)c(O)c1)O[C@@H]1CC(OC(=O)/C=C/c2ccc(O)c(O)c2)(C(=O)O)C[C@@H](O)C1O (stereo partly drawn) [compound 11, 1,3-dicaffeoylquinic acid]
